Reference: patent publication US9617260B2, “Inhibitors of bruton's tyrosine kinase” (Hoffmann-La Roche Inc., priority 2013, dated 2017)

Molecular target: Bruton's Tyrosine Kinase (BTK), inactivated state (Homo sapiens (Human), UniProt Q06187)
Assay: Bruton's Tyrosine Kinase (BTK) Inhibition TR-FRET (Time Resolved FRET) competition assay
Type: binding
Details: competition with Kinase Tracer 178 for BTK-Eu; plates incubated 18-24 h at 14° C.
Procedure: Bruton's Tyrosine Kinase (BTK) Inhibition TR-FRET (Time Resolved FRET) Assay
This BTK competition assay measures compound potency (IC50) for the inactivated state of Bruton's Tyrosine Kinase using FRET (Förster/Fluoresence Resonance Energy Transfer) technology. The BTK-Eu complex was incubated on ice one hour prior to use at a starting concentration of 50 nM BTK-Bioease™: 10 nM Eu-streptavidin (Perkin-Elmer Catalog #AD0062). The assay buffer consisted of 20 mM HEPES (pH 7.15), 0.1 mM DTT, 10 mM MgCl2, 0.5 mg/ml BSA with 3% Kinase Stabilizer (Fremont Biosolutions, Catalog #STB-K02). After 1 h, the reaction mixture from above was diluted 10 fold in assay buffer to make 5 nM BTK: 1 nM Eu-Streptavidin complex (donor fluorophore). 18 μl of a mixture of 0.11 nM BTK-Eu and 0.11 nM Kinase Tracer 178 (Invitrogen, Catalog #PV5593,) with BTK-Eu alone as no negative control, was then dispensed into 384-well flat bottom plates (Greiner, 784076). Compounds to be tested in assay were prepared as 10× concentrations and serial dilution in half-log increments was performed in DMSO so as to generate 10 point curves. To initiate the FRET reaction, compounds prepared as 10× stock in DMSO was added to the plates and the plates were incubated 18-24 h at 14° C.
After the incubation the plates were read on a BMG Pherastar Fluorescent plate reader (or equivalent) and used to measure the emission energy from the europium donor fluorophore (620 nm emission) and the FRET (665 nm emission). The negative control well values were averaged to obtain the mean minimum. The positive “no inhibitor” control wells were averaged to obtain the mean maximum. Percent of maximal FRET was calculated using following equation: % max FRET=100×[(FSRcmpd−FSRmean min)/(FSRmean max−FSRmean min)]
where FSR=FRET Signal ratio. % Max FRET curves were plotted in Activity Base (Excel) and the IC50 (%), hill slope, z′ and % CV were determined The mean IC50 and standard deviation will be derived from duplicate curves (singlet inhibition curves from two independent dilutions) using Microsoft Excel.
Representative compound data for this assay are listed below in Table II.

Chain of Bruton's Tyrosine Kinase (BTK), inactivated state (Q06187 whole entry): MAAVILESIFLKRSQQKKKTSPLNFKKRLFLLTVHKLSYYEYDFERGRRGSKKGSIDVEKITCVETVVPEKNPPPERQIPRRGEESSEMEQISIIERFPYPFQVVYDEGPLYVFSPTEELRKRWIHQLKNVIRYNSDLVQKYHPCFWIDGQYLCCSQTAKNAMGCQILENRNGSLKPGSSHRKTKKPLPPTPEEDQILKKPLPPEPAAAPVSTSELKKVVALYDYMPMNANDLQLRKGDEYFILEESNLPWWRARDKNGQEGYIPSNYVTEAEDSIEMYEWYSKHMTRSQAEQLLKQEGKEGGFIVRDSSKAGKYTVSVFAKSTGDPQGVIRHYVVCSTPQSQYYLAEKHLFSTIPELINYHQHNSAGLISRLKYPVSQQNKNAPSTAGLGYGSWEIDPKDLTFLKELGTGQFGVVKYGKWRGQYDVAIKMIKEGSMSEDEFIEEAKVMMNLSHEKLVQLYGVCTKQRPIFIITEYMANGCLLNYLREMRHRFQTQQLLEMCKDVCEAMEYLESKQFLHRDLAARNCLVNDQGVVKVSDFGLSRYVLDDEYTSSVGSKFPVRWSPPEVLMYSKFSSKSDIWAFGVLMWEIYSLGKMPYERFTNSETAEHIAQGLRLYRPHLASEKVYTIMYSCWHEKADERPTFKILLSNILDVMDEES

| Compound | IC50 [nM] |
| --- | --- |
| CCC(=O)C(=O)Nc1cccc(-c2c[nH]c3ncc(NC(=O)OCc4cccc(F)c4)cc23)c1 [Compound 16, (3-fluorophenyl)methyl N-[3-[3-(2-oxobutanoylamino)phenyl]-1H-pyrrolo[2,3-b]pyridin-5-yl]carbamate] | 42 |
| CC(C)CC(=O)C(=O)Nc1cccc(-c2c[nH]c3ncc(NC(=O)OCc4ccccc4)cc23)c1 [Compound 12, benzyl N-[3-[3-[(4-methyl-2-oxopentanoyl)amino]phenyl]-1H-pyrrolo[2,3-b]pyridin-5-yl]carbamate] | 285 |
| CN(C)C/C=C/C(=O)Nc1ccccc1-c1c[nH]c2ncc(NC(=O)OCc3ccccc3)cc12 [Compound 23, benzyl N-[3-[2-[[(E)-4-(dimethylamino)but-2-enoyl]amino]phenyl]-1H-pyrrolo[2,3-b]pyridin-5-yl]carbamate] | 331 |
| CCC(=O)C(=O)N1CC=C(c2c[nH]c3ncc(NC(=O)OCc4ccccc4Cl)cc23)CC1 [Compound 25, (2-chlorophenyl)methyl N-[3-[1-(2-oxobutanoyl)-3,6-dihydro-2H-pyridin-4-yl]-1H-pyrrolo[2,3-b]pyridin-5-yl]carbamate] | 404 |
| C=CC(=O)Nc1cccc(-c2c[nH]c3ncc(NC(=O)OCc4ccccc4)cc23)c1 [Compound 2, benzyl N-[3-[3-(prop-2-enoylamino)phenyl]-1H-pyrrolo[2,3-b]pyridin-5-yl]carbamate] | 0.3 |
| CCC(=O)C(=O)Nc1cccc(-c2c[nH]c3ncc(NC(=O)OCc4cccc(C#N)c4)cc23)c1 [Compound 19, (3-cyanophenyl)methyl N-[3-[3-(2-oxobutanoylamino)phenyl]-1H-pyrrolo[2,3-b]pyridin-5-yl]carbamate] | 114 |
| C=CC(=O)Nc1cccc(-c2c[nH]c3ncc(NC(=O)OC(C)C)cc23)c1 [Compound 3, propan-2-yl N-[3-[3-(prop-2-enoylamino)phenyl]-1H-pyrrolo[2,3-b]pyridin-5-yl]carbamate] | 0.3 |
| COCCC(=O)N(C)c1cccc(-c2c[nH]c3ncc(NC(=O)OC(C)C)cc23)c1 [Compound 7, propan-2-yl N-[3-[3-[3-methoxypropanoyl(methyl)amino]phenyl]-1H-pyrrolo[2,3-b]pyridin-5-yl]carbamate] | 880 |
| CC(C)OC(=O)Nc1cnc2[nH]cc(-c3cccc(NC(=O)/C=C/CN(C)C)c3)c2c1 [Compound 5, propan-2-yl N-[3-[3-[[(E)-4-(dimethylamino)but-2-enoyl]amino]phenyl]-1H-pyrrolo[2,3-b]pyridin-5-yl]carbamate] | 13 |
| CCC(=O)C(=O)N1CC=C(c2c[nH]c3ncc(NC(=O)OCc4ccccc4)cc23)CC1 [Compound 27, benzyl N-[3-[1-(2-oxobutanoyl)-3,6-dihydro-2H-pyridin-4-yl]-1H-pyrrolo[2,3-b]pyridin-5-yl]carbamate] | 291 |
| CC(=O)C(=O)N1CC=C(c2c[nH]c3ncc(NC(=O)OCc4cccc(C#N)c4)cc23)CC1 [Compound 29, (3-cyanophenyl)methyl N-[3-[1-(2-oxopropanoyl)-3,6-dihydro-2H-pyridin-4-yl]-1H-pyrrolo[2,3-b]pyridin-5-yl]carbamate] | 700 |
| C=CC(=O)N1C=C(c2c[nH]c3ncc(NC(=O)OCc4ccccc4)cc23)CCC1 [Compound 33, benzyl N-[3-(1-prop-2-enoyl-3,4-dihydro-2H-pyridin-5-yl)-1H-pyrrolo[2,3-b]pyridin-5-yl]carbamate] | 0.6 |

The remaining compounds from weak to strong by IC50, led by results:

| IC50 [nM] | Compound |
| --- | --- |
| 620 | CC(C)OC(=O)Nc1cnc2[nH]cc(-c3cccc(NC(=O)CC#N)c3)c2c1 [Compound 22, propan-2-yl N-[3-[3-[(2-cyanoacetyl)amino]phenyl]-1H-pyrrolo[2,3-b]pyridin-5-yl]carbamate] |
| 384 | CCC(=O)C(=O)N1CC=C(c2c[nH]c3ncc(NC(=O)OCc4cccc(F)c4)cc23)CC1 [Compound 26, (3-fluorophenyl)methyl N-[3-[1-(2-oxobutanoyl)-3,6-dihydro-2H-pyridin-4-yl]-1H-pyrrolo[2,3-b]pyridin-5-yl]carbamate] |
| 287 | N#CC1(C(=O)Nc2cccc(-c3c[nH]c4ncc(NC(=O)OCc5ccccc5)cc34)c2)CC1 [Compound 21, benzyl N-[3-[3-[(1-cyanocyclopropanecarbonyl)amino]phenyl]-1H-pyrrolo[2,3-b]pyridin-5-yl]carbamate] |
| 210 | CC(=O)C(=O)N1CC=C(c2c[nH]c3ncc(NC(=O)OCc4cccc(F)c4)cc23)CC1 [Compound 28, (3-fluorophenyl)methyl N-[3-[1-(2-oxopropanoyl)-3,6-dihydro-2H-pyridin-4-yl]-1H-pyrrolo[2,3-b]pyridin-5-yl]carbamate] |
| 165 | CC(=O)C(=O)N1CC=C(c2c[nH]c3ncc(NC(=O)OCc4ccccc4Cl)cc23)CC1 [Compound 24, (2-chlorophenyl)methyl N-[3-[1-(2-oxopropanoyl)-3,6-dihydro-2H-pyridin-4-yl]-1H-pyrrolo[2,3-b]pyridin-5-yl]carbamate] |
| 100 | CC(C)(C)C(=O)C(=O)Nc1cccc(-c2c[nH]c3ncc(NC(=O)OCc4ccccc4)cc23)c1 [Compound 10, benzyl N-[3-[3-[(3,3-dimethyl-2-oxobutanoyl)amino]phenyl]-1H-pyrrolo[2,3-b]pyridin-5-yl]carbamate] |
| 43.7 | CC(=O)C(=O)Nc1cccc(-c2c[nH]c3ncc(NC(=O)OCc4cccc(F)c4)cc23)c1 [Compound 17, (3-fluorophenyl)methyl N-[3-[3-(2-oxopropanoylamino)phenyl]-1H-pyrrolo[2,3-b]pyridin-5-yl]carbamate] |
| 1.2 | C=CC(=O)N1CC=C(c2c[nH]c3ncc(NC(=O)OCc4ccccc4)cc23)CC1 [Compound 30, benzyl N-[3-(1-prop-2-enoyl-3,6-dihydro-2H-pyridin-4-yl)-1H-pyrrolo[2,3-b]pyridin-5-yl]carbamate] |
